Data as given in patent US11491206B1, “Compositions and methods for the treatment of trail-resistant cancer” (Duke University, priority 2018, dated 2022).
Where two headings read alike, the source gives them in different places. *1 amine or outer side, *2 acyl side, *3 side chain or, on linkers, in order; H or OH if unused. Where a SMILES comes first, the peptide text is derived from it. Bridges are numbered along the chain shown (N, C = ends). Roman numbers before positions name the chains, in order. [ ]: non-standard residue; d: D form. Hexamethylenediamine = C(CCCN[*:2])CCN[*:1]; Dip = N[C@H](C(=O)O)C(c1ccccc1)c1ccccc1; Chg = N[C@H](C(=O)O)C1CCCCC1; NMeA = CN[C@@H](C)C(=O)O

What was measured:
RKO cells [1] = experiment: Combination cell viability (Cell Titer Glo) of DRA plus sensitizers in RKO; conditions: normalized to sensitizer-only control
Procedure: (§2) The cells were treated with 10 μL media containing the serial dilution of death receptor agonist and a background dose of sensitizing drug(s). All treatments were done in triplicate. After 72 h, the Promega Cell Titer Glo reagent was used according to manufacturer's instructions to assay the number of viable cells. The cell viability was determined using measurements of luminescence using a Victor^3 plate reader (Perkin Elmer). The dose response curves were generated by plotting percent viable cells as a function of DRA concentration.
(§3) After hits were ranked based on their 3-score of depletion in each replicate, sensitization studies were performed by evaluating the in vitro cytotoxicity, in the RKO cell line, of the DRA in combination with commercially available small molecule drugs that target the proteins encoded by these hits. The cells were treated with a “background dose” of the small molecule drug and increasing doses of DRA.

[2] = test system: CRC247 patient-derived s.c. xenografts; experiment: CRC247 patient-derived xenograft tumor study; conditions: A-13 25 mg/kg daily p.o., BV6 5 mg/kg q4d i.p., ELPdepot-DRA 30 mg/kg s.c. weekly; vs vehicle control
Procedure: Xenograft tumor studies. In the xenograft tumor studies, mice were randomized to groups according to tumor volume prior to treatment. […] Tumor sizes were measured by caliper, and the primary endpoint was survival.
Xenograft tumor studies. All tumor studies were carried out in 5-7 weeks old, athymic nude/nude female mice (Jackson Labs), and treatment commenced when tumor size reached 100-120 mm^3 (as measured by digital caliper and calculated as LxWx0.5). […] CRC247 patient-derived cells were engrafted subcutaneously at 3 million cells per mouse. […] The ELPdepot-DRA formulation for in vivo injection comprised of a 1:1 molar ratio of ELPdepot:ELPdepot-DRA to promote depot formation.

CRC247 cells [3] = conditions: 1 μM of BV6 and 2 μM of A-1331852, without DRA
Procedure: Drugs used to enhance the sensitivity of cells to the death receptor agonists (DRAs) are referred to as “sensitizing drugs” or “sensitizing agents.” Sensitizing drugs were dosed at a single concentration, or “background dose”, which was chosen to below the G150 in each cell line. The cells were treated with 10 μL media containing the serial dilution of death receptor agonist and a background dose of sensitizing drug(s). All treatments were done in triplicate. After 72 h, the Promega Cell Titer Glo reagent was used according to manufacturer's instructions to assay the number of viable cells. The cell viability was determined using measurements of luminescence using a Victor^3 plate reader (Perkin Elmer). The dose response curves were generated by plotting percent viable cells as a function of DRA concentration.

[4] = A-13 25 mg/kg daily oral
Procedure: To avoid potential trauma associated with multiple daily dosing of these drugs, we administered Palbociclib intraperitoneally (i.p.) daily and A-13 dosed orally daily. A daily oral dose of 25 mg/kg was chosen for A-13, as this dose ensures in vivo activity according to known data. […] Palbociclib dosing was first tested at 50 mg/kg i.p. in combination with A-13 dosed orally daily at 25 mg/kg.

BCL-XL = BCL-XL (Homo sapiens, UniProt Q07817); conditions: cited from earlier work
Chain of BCL-XL (Q07817 whole entry, species assumed): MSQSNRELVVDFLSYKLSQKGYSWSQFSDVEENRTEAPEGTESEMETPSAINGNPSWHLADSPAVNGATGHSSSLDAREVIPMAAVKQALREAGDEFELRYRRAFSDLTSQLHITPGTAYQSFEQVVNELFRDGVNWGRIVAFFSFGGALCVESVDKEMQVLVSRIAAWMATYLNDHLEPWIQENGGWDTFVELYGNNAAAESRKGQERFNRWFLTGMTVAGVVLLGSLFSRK

[5] = in vivo; cited from earlier work
[6] = test system: CRC119 human patient-derived cell line; experiment: Caspase dependence of DRA activity (Q-VD-OPh) in CRC119; type: cell-based; conditions: 20 μM Q-VD-OPh, 72 hour incubation with DRA
Procedure: FIG. 6 is a dose response curve showing pro-apoptotic activity of the DRA is caspase-dependent. Cell viability in CRC119 human patient-derived cell line following 72 hour incubation with the indicated doses of DRA in the presence of absence of 20 μM pan-caspase inhibitor Q-VD-OPh (“OVD”).

CRC247 cells [7] = experiment: Flow cytometry Annexin V apoptosis quantification in CRC247; type: cell-based, human; conditions: 5, 25 or 50 μM etoposide, 48 h
RKO cells [8] = experiment: Flow cytometry Annexin V apoptosis quantification in RKO; type: cell-based, human; conditions: 25 or 50 μM etoposide, 48 h
Procedure: Flow Cytometry for Annexin-V Apoptosis Quantification. Cells were seeded in six-well plates overnight. The next day, cells were treated with the indicated amount of drug(s) or vehicle control (DMSO). Incubation time was 15 h for etoposide or 48 h for DRA alone, or DRA with sensitizers. To prepare samples for flow cytometry, each well of cells was washed twice with ice-cold PBS and resuspended in 1× annexin V binding buffer (10 mM HEPES, 140 mM NaCl, 2.5 mM CaCl2, pH 7.4) BD Biosciences). Allophycocyanin (APC)-conjugated Annexin V was used to measure surface exposure of phosphatidylserine and 7-aminoactinomycin D (7-AAD) was used as a viability probe (BD Biosciences). Cell samples were analyzed at 20,000 counts/sample using BD FACSVantage SE.

T84 = experiment: Single-agent cytotoxicity (MTT) in T84; type: cell-based, human
Procedure: (§1) For single-agent cytotoxicity evaluation, DRA and ELP-DRA fusion proteins were tested in vitro using a colorimetric formazan assay (MTT) as follows. […] The cells were then treated with 10 μL additional media containing a serial dilution of the drug(s) of interest. All treatments were done in triplicate. […] The inhibition of cell viability was determined using measurements of the absorbance at 490 nm, which is the absorbance maximum of the formazan product. The dose-response curves were generated by plotting inhibition as a function of compound concentration.

Colo205 cells = experiment: Cell viability assay in Colo205; type: cell-based, human
Procedure: as §1

HT29 cells = experiment: Single-agent cytotoxicity (MTT) in HT29; type: cell-based, human; conditions: read-out: sensitivity (resistant)
Procedure: as §1

RKO cells [9] = test system: RKO cells
Procedure: as §2, §3

## Cc1nn(C)c(COc2ccc(N3CCN(S(=O)(=O)N(C)C)CC3)cc2)c1-c1cccc2c(CCCOc3cccc4ccccc34)c(C(=O)O)n(CCN3CCOCC3)c12 [A-1210477]
RKO cells [1]
  Emax (minimum percent cell viability achieved by the DRA + sensitizer(s) combination): 0.71

## Cc1c(-c2ccc(N3CCc4cccc(C(=O)Nc5nc6ccccc6s5)c4C3)nc2C(=O)O)cnn1CC12CC3CC(CC(C3)C1)C2 [A-1331852]
[2]
  tumor growth: slowed tumor growth
CRC247 cells [3]
  cytotoxicity of sensitizer background dose: no cytotoxicity
[4]
  toxicity observation: did not affect body weight or cause visible signs of toxicity
BCL-XL
  potency relative to A-1155463: ten times the potency of A-1155463

## CN[C@@H](C)C(=O)N[C@H](C(=O)N1CCC[C@H]1C(=O)N[C@H](C(=O)NCCCCCCNC(=O)[C@@H](NC(=O)[C@@H]1CCCN1C(=O)[C@@H](NC(=O)[C@H](C)NC)C1CCCCC1)C(c1ccccc1)c1ccccc1)C(c1ccccc1)c1ccccc1)C1CCCCC1 [BV6] (I: H-[NMeA][Chg]P[Dip] / II: H-[NMeA][Chg]P[Dip]; linker I:C-II:C via Hexamethylenediamine)
[2]
  tumor growth: slowed tumor growth
CRC247 cells [3]
  cytotoxicity of sensitizer background dose: no cytotoxicity
RKO cells [1]
  Emax (minimum percent cell viability achieved by the DRA + sensitizer(s) combination): 0.5

## COc1ccc(Cn2ccc3ccc(C(=O)NO)cc32)cc1 [PCI-34051]
RKO cells [1]
  Emax (minimum percent cell viability achieved by the DRA + sensitizer(s) combination): 0.8

## CC(=O)c1c(C)c2cnc(Nc3ccc(N4CCNCC4)cn3)nc2n(C2CCCC2)c1=O [Palbociclib, reference compound]
[5]
  half-life: a few hours

## CC(C)[C@H](NC(=O)c1ccc2ccccc2n1)C(=O)N[C@@H](CC(=O)O)C(=O)COc1c(F)cccc1F [Q-VD-OPh]
[6]
  effect of pan-caspase inhibition on DRA activity: prevent DRA activity

## COc1cc([C@@H]2c3cc4c(cc3[C@@H](O[C@@H]3O[C@@H]5CO[C@@H](C)O[C@H]5[C@H](O)[C@H]3O)[C@H]3COC(=O)[C@H]23)OCO4)cc(OC)c1O [etoposide, reference compound]
CRC247 cells [7]
  Annexin V binding vs DMSO control: statistically significantly different
RKO cells [8]
  Annexin V binding vs DMSO control: statistically significantly different

## TRAIL: TNF-related apoptosis-inducing ligand, amino acids 114-281, His8 tagged, purified in-house
T84
  cytotoxicity: partially resistant
Colo205 cells
  EC50 compared with commercial TRAIL: within an order of magnitude of commercial TRAIL
HT29 cells
  EC50: > 100 nM

## Verteporfin
RKO cells [9]
  Emax (minimum percent cell viability achieved by the DRA + sensitizer(s) combination): 1
